Source: patent publication US20020102230A1, “Method for inactivating pathogens” (priority 2000, published 2002)
Converted amounts (≈) assume the structure as drawn.

What was measured:
IIIB strain of HIV [1] = assay: Virus attachment assay (HeLa CD4 LTR β-gal cells); type: cell-based; conditions: Human immunodeficiency virus 1, 1 h adsorption
Protocol: (§1) This assay is designed to detect compounds that interact with the cell and block virus attachment, and/or compounds that interact with the forming attachment/fusion complex. The attachment assay is performed with HeLa CD4 LTR β-gal cells. HeLa CD4 LTR β-gal cells are routinely cultured with the required selection antibiotics. Twenty-four hours prior to initiation of the assay the cells are trypsinized, counted, and 1×10^4 cells placed in a 0.2 cm well in media without selection antibiotics. At 24 h media is removed and compound in media placed on the cells and incubated for 15 min at 37° C. […] At the end of the incubation, the wells are washed 3 times with media and the culture continued for 40 to 48 h. At termination of the assay, media is removed and β-galactosidase enzyme expression determined by chemiluminescence per manufacturer instructions (Tropix Gal-screen™, Bedford Mass.) by a single step chemiluminescent method using a single solution to lyse the cells and detect β-galactosidase enzyme activity. Compound toxicity is monitored on a sister plate by XTT dye reduction. All determinations are performed in triplicate with serial ½ Log10 dilution of the test materials.

HeLa CD4 LTR β-gal cells [2] = assay: Compound toxicity (XTT, sister plate) in the virus attachment assay; type: cell-based
Protocol: as §1

HeLa CD4 LTR β-gal cells [3] = assay: Compound toxicity (XTT, sister plate) in the fusion assay; type: cell-based
Protocol: The fusion assay assesses the ability of compounds to block cell-to-cell fusion mediated by HIV-1 Env and CD4 expressed on separate cells. This assay is sensitive to inhibitors of both the gp120/CD4 interaction and inhibitors of the X4 coreceptor. First, 5×10^3 HeLa CD4 LTR β-gal cells are placed in microtiter wells and incubated overnight. The following day the media is removed and the HeLa CD4 LTR β-gal cells are incubated for 1 h at 37° C. in fresh media with test compound. Following the incubation 5×10^3 HL2/3 cells are added and the incubation continued for 40 to 48 h. At 40 to 48 h β-galactosidase enzyme expression is detected by chemiluminescence (Tropix Gal-screen™, Tropix, Bedford, Mass.). Compound toxicity is monitored on a sister plate using XTT dye reduction. All determinations are performed in triplicate with serial ½ Log10 dilution of the test materials.

[4] = Drug cytotoxicity in Vero cells (MTS), HSV-1 assay; type: cell-based; conditions: African green monkey
Source text: (§2) A virus induced cytopathic effects (CPE) inhibition assay procedure using Promega's cell titer aqueous one solution (MTS, metabolic dye similar to XTT) is employed to evaluate compounds for antiviral activity against herpes simplex virus type 1 (HSV-1) strain HF in Vero cells. Vero cells are pregrown in 96 well tissue culture plates using Dulbecco's modified eagle's media (DMEM) supplemented with 10% heat inactivated fetal bovine serum (FBS), L-glutamine, penicillin and streptomycin. Antiviral assays are designed to test six half log dilution of each compound in triplicate against the challenge virus in microtiter plate wells containing host cell monolayers. To each of the replicate cell cultures is added 50 uL of the test drug solution and 50 uL of virus suspension. Cell control containing medium alone, virus infected controls containing medium and virus, drug cytotoxicity controls containing medium and each drug concentration, reagent controls containing culture medium only (no cells), and drug calorimetric controls containing drug and medium (no cells) are run simultaneously with the test samples. The plates are incubated at 37° C. in a humidified atmosphere containing 5% CO2 until maximum CPE is observed in the untreated virus control cultures (day 5). CPE inhibition is determined by the dye (MTS) uptake procedure. […]

[5] = tested on: herpes simplex virus type 1 (HSV-1) strain HF; assay: Virus induced cytopathic effects (CPE) inhibition assay in Vero cells (MTS); type: cell-based; conditions: Human alphaherpesvirus 1, Vero, read-out: Ic50 against HSV-1 virus
Source text: as §2

[6] = tested on: vaginal/cervical epithelial and other cells; conditions: concentrations as low as; cited from earlier work
IIIB strain of HIV [7] = conditions: virus adsorption interval of 1 h; cited from earlier work
HIV-1 (RF) = type: cell-based; conditions: 6 days, MTS, control, row printed in μM, read-out: Ic50, activity against HIV-1 in CEM-SS cells
Protocol: (§3) CEM-SS cells (obtained from the AIDS Research and Reference Reagent Repository, Bethesda, Md.) are passaged in T-75 flasks in tissue culture media (RP 1640 medium (no phenol red) with 10% Fetal Bovine Serum (heat inactivated), 2 mM L-glutamine, 100 U/mL penicillin, 100 μg/mL streptomycin, and 10 μg/mL gentamycin). On the day preceding the assay, the cells are split 1:2. On the day of assay the cells are collected by centrifugation, washed twice with tissue culture medium and resuspended in fresh tissue culture medium. Total cell and viability counting is performed using a hemacytometer. Cell viability prior to the assay is determined by Trypan Blue dye exclusion and must exceed 95%. A pretitered aliquot of HIV-1 RF (AIDS Research and Reference Reagent Repository, Bethesda, Md.), CEM-SS cells and compound are placed into microtiter plates. Each plate contains cell control wells (cells only), virus control wells (cell plus virus), drug toxicity control wells (cells plus drugs only), drug calorimetric control wells (drugs only) as well as experimental wells (drug plus cells plus virus) . Cultures are incubated for 6 days at 37° C., 5% CO2 and antiviral activity and compound toxicity determined by MTS staining.

CEM-SS cells = tested on: CEM-SS cells
Protocol: as §3

COc1cc(-c2ccc(/N=N/c3ccc4c(S(=O)(=O)O)cc(S(=O)(=O)O)c(N)c4c3O)c(OC)c2)ccc1/N=N/c1ccc2c(S(=O)(=O)O)cc(S(=O)(=O)O)c(N)c2c1O [Chicago Sky Blue]
IC50 (IIIB strain of HIV [1]): 0.32 µg/mL (≈ 0.354 µM) | Attachment Assay TC50 (HeLa CD4 LTR β-gal cells [2]): >10 µg/mL | Fusion Assay TC50 (HeLa CD4 LTR β-gal cells [3]): >10 µg/mL

Nc1nc2c(ncn2COCCO)c(=O)[nH]1 [Acyclovir]
CC50 at 5 day [4]: > 10 µg/mL | IC50 [5]: 2.7 µM

Nonoxynol-9
Concentration that can injure vaginal/cervical epithelial and other cells [6]: about 0.0005%

Cc1cn([C@H]2C[C@H](N=[N+]=[N-])[C@@H](CO)O2)c(=O)[nH]c1=O [AZT]
Activity in the virus attachment assay (in words) (IIIB strain of HIV [7]): not active | IC50 (HIV-1 (RF)): 0.005 µM | CC50 (CEM-SS cells): > 1 µM
